For one data set, the target named is T1, CbrAΔSLC5 (Pseudomonas putida, UniProt Q88DX3).
T1 construct: gene PP_4695; cytoplasmic domains, residues 614-992, C-terminal 12His tag, 44 kDa predicted, E. coli C41, Ni-NTA purified
T1 sequence (Q88DX3 614-991): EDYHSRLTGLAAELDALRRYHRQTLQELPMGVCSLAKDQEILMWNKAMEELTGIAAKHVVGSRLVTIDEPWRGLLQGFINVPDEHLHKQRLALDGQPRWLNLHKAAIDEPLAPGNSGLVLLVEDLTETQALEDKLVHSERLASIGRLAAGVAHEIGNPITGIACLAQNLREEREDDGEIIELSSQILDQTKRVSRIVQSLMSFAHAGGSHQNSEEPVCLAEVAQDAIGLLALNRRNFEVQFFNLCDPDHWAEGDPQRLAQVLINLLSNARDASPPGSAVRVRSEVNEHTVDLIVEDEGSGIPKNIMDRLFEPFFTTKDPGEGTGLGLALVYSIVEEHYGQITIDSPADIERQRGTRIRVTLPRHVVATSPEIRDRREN
As to the kind of experiment: autophosphorylation, SDS-PAGE. The note with it: 50 mM Tris-HCl pH 7.5, 10 mM MgCl2, 360 mM KCl, 30 °C; labelled compound. It counts as biochemical.

The target in a further data set is T2, CbrA (Pseudomonas putida, UniProt Q88DX3).
T2 construct: gene PP_4695; full length, 109 kDa predicted
T2 sequence (Q88DX3 1-991): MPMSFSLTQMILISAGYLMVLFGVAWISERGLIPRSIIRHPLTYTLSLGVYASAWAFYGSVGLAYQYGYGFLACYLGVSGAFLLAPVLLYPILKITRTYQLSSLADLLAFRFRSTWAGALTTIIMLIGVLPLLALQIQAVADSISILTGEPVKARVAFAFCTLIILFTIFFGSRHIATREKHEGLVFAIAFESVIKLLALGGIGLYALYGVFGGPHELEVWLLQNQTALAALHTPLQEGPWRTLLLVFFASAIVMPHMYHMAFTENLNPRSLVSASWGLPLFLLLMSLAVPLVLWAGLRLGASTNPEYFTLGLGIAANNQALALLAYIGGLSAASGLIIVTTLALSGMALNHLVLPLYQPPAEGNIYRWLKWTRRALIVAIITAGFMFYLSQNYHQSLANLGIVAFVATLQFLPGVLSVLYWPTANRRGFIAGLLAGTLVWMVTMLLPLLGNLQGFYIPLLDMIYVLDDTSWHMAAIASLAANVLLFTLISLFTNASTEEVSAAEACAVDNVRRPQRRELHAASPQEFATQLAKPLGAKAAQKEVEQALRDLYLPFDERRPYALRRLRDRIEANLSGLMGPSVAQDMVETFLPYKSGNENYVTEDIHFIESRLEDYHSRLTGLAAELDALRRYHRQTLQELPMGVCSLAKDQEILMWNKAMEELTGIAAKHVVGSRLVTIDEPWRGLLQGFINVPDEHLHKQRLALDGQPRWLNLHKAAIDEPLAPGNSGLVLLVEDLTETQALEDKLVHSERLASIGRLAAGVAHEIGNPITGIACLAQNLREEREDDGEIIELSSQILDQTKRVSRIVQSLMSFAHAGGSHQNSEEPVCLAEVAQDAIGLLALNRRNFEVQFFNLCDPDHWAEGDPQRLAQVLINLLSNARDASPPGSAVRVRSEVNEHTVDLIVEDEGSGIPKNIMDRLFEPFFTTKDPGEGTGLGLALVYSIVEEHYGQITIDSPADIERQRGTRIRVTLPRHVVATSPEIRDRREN
Put plainly: DRaCALA, E. coli C43 membrane vesicles. Format: binding. Particulars: 1.35 µM ligand, 100 mM KPi pH 7.5, 25 °C; labelled compound.

Data set [1] addresses T3, PAS domain of CbrA (Pseudomonas putida, UniProt Q88DX3).
T3 construct: gene PP_4695; PAS domain, residues 614-745, C-terminal 12His tag, E. coli BL21 / C43, Ni-NTA purified
T3 sequence (Q88DX3 614-745): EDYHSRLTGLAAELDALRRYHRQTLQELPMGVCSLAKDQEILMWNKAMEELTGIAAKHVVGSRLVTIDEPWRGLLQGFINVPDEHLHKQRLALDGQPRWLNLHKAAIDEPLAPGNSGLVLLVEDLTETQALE
Put plainly: thermal shift titration, nanoDSF. Format: binding.

The target of data set [2] is T3, PAS domain of CbrA. As to the kind of experiment: thermal shift, nanoDSF. The note with it: read-out: dTm at 1 mM. Format: binding.
A further data set has as its target T4, SLC5 domain of CbrA (Pseudomonas putida, UniProt Q88DX3).
T4 construct: gene PP_4695; SLC5 transporter domain, residues 3-544
T4 sequence (Q88DX3 3-544): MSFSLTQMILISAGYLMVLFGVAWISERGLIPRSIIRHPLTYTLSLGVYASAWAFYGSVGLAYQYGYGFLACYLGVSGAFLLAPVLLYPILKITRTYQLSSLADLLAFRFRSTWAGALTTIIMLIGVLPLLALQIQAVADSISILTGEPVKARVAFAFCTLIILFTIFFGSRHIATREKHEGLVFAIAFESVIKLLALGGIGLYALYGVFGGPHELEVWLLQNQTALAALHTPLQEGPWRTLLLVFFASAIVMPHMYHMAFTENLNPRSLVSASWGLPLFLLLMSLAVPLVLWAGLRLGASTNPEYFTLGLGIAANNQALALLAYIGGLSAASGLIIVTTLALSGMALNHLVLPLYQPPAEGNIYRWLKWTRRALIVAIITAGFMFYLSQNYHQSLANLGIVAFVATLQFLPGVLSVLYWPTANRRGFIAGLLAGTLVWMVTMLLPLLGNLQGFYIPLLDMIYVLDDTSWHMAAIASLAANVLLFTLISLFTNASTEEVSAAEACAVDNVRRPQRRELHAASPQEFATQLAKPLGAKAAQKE
As to the kind of experiment: DRaCALA, E. coli C43 membrane vesicles. It counts as binding. Particulars: 1.35 µM ligand, 100 mM KPi pH 7.5, 25 °C; labelled compound.

Substrate in data set [3]: N[C@@H](Cc1c[nH]cn1)C(=O)O
As to the kind of experiment: 3H-L-histidine uptake into P. putida LW1 cells. The note with it: transport, 100 mM Tris/MES pH 6.0, 25 °C, energized with 10 mM D-lactate, background subtracted, labelled compound. Format: cell-based, Pseudomonas putida.

As for `Nc1ncnc2c1ncn2[C@@H]1O[C@H](COP(=O)(O)OP(=O)(O)OP(=O)(O)O)[C@@H](O)[C@H]1O` [γ-32P-ATP], at CbrAΔSLC5, the “autophosphorylation, 32P SDS-PAGE” value is “catalyzed both autophosphorylation and transfer of the phosphoryl group to CbrB”. For `N[C@@H](Cc1cnc[nH]1)C(=O)O` [L-histidine], the bound fraction result on CbrA was “evidence for binding of ^3H-L-histidine to CbrA and the SLC5 domain”; on SLC5 domain of CbrA it was “evidence for binding of ^3H-L-histidine to CbrA and the SLC5 domain”. Besides, at PAS domain of CbrA [1], the dissociation constant Kd (usually the free concentration of one partner at which half of the binding sites on the other are occupied at equilibrium, for simple one-to-one binding) is 43 ± 13 µM. In addition, the ΔTm at 1000 µM at PAS domain of CbrA [2] worked out at 0.73 ± 0.13 °C.

B1: SLC5 domain of CbrA (Pseudomonas putida KT2440) (protein)
chain: T4 sequence (Q88DX3 3-544)
notes: SLC5 transporter domain, residues 3-544
For B1, in data set [3], the Km – broadly, the concentration of substrate that gives half-maximal velocity – was 0.58 ± 0.18 µM.

B2: CbrA (Pseudomonas putida KT2440) (protein)
chain: T2 sequence (Q88DX3 1-991)
notes: full length, 109 kDa predicted
Take B2: in data set [3], the Km is 0.7 ± 0.2 µM.

The values above are taken from PMC7096432, “Transport and kinase activities of CbrA of Pseudomonas putida KT2440” (Scientific Reports, 2020).
